Measured values from ChEMBL document CHEMBL5036357, “2,3-Difunctionalized Benzo[b]thiophene Scaffolds Possessing Potent Antiangiogenic Properties” (J Med Chem, 2022).
Values belong to the molecule of their own block, whether it stands above or below them. Active and inactive are the calls of the source. The calls are words filed in the database; no cut-off is given here.

Tests used:
HUVEC [1] = test: Anti-angiogenesis activity against HUVEC cells assessed as tubule formation at 10 uM incubated for 6 hrs by inverted fluorescence microscopic analysis relative to control; assay type: functional, Homo sapiens
HUVEC [2] = test: Anti-angiogenesis activity against HUVEC cells assessed as tubule formation at 250 nM incubated for 6 hrs by inverted fluorescence microscopic analysis relative to control; assay type: functional, Homo sapiens
HUVEC [3] = test: Inhibition of tube formation in HUVEC measured up to 12 hrs by calcein-AM staining based fluorescence microscopic analysis; assay type: functional, cell-based; settings: Homo sapiens, dose 250-10000 nM, time hrs <=12
HUVEC [4] = test: Inhibition of tube formation in HUVEC at 50 to 100 nM measured up to 12 hrs by calcein-AM staining based fluorescence microscopic analysis; assay type: functional, cell-based; settings: Homo sapiens, dose 50-100 nM, time hrs <=12
HUVEC [5] = test: Antiangiogenic activity against VEGF-stimulated HUVEC cells assessed as reduction in endothelial sprouting tubules incubated for 3 days by Cytodex-3 beads based inverted microscopic analysis; assay type: functional, cell-based; settings: Homo sapiens, dose 250-1000 nM, time 3.0 day
HUVEC [6] = test: Antiangiogenic activity against HUVEC cells assessed as inhibition of cell migration measured after 12 hrs by scratch wound closure assay relative to control; assay type: functional, Homo sapiens
HUVEC [7] = test: Antiangiogenic activity against HUVEC cells assessed as inhibition of cell migration measured after 24 hrs by scratch wound closure assay; assay type: functional, cell-based; settings: Homo sapiens
HUVEC [8] = test: Cytotoxicity against HUVEC assessed as reduction in cell proliferation at 250 nM measured after 24 hrs by MTT assay; assay type: cell-based; settings: human, 0.25 µM
HUVEC [9] = test: Effect on cell cycle distribution in HUVEC cells assessed as accumulation of cells in G2 phase at 250 nM measured after 24 hrs by propidium iodide staining based flow cytometry analysis (Rvb= 1.67%); assay type: functional, Homo sapiens
Mus musculus [10] = species: Mus musculus; test: Antiangiogenic activity in BALB/c mouse assessed as reduction in neovascularization by measuring reduction in hemoglobin concentration at 250 nM by matrigel plug assay; assay type: functional, organism-based
Mus musculus [11] = species: Mus musculus; test: Antiangiogenic activity in BALB/c mouse assessed as assessed as reduction in CD31-positive microvessel density in ear tissue at 250 nM measured after 6 days by fluorescence microscopic analysis; assay type: functional, organism-based; settings: time 6.0 day
HUVEC [12] = test: Downregulation of p-Akt expression in HUVEC cells at 250 nM measured after 6 hrs by Western blot analysis; assay type: functional, cell-based; settings: Homo sapiens
HUVEC [13] = test: Downregulation of p-Src expression in HUVEC cells at 250 nM measured after 6 hrs by Western blot analysis; assay type: functional, cell-based; settings: Homo sapiens
HUVEC [14] = test: Downregulation of ICAM-1 expression in HUVEC cells at 250 nM measured after 6 hrs by Western blot analysis; assay type: functional, cell-based; settings: Homo sapiens
HUVEC [15] = test: Induction of F-actin depolymerization in HUVEC assessed as loss of F-actin continuity at 250 nM incubated for 6 hrs by phalloidin staining based confocal microscopic analysis; assay type: tissue-based; settings: Homo sapiens
Tubulin (Homo sapiens) [16] = molecular target: T1, Tubulin (Homo sapiens) (UniProt P68371+Q9H4B7+P0DPH7+P68366+Q13509+Q71U36+P04350+Q3ZCM7+P07437+P68363+Q9BQE3+Q6PEY2+Q13885+Q9BVA1+Q9BUF5); test: Induction of microtubule depolymerization in HUVEC assessed as assessed as microtubule network abnormalities at 250 nM incubated for 6 hrs by […] based confocal microscopic analysis; assay type: tissue-based
HUVEC [17] = test: Induction of F-actin depolymerization in HUVEC assessed as loss of endothelial cell morphology at 250 nM incubated for 6 hrs by phalloidin staining based confocal microscopic analysis; settings: Homo sapiens
Tubulin (Homo sapiens) [18] = molecular target: T1, Tubulin (Homo sapiens); test: Induction of microtubule depolymerization in HUVEC assessed as assessed as loss of endothelial cell morphology at 250 nM incubated for 6 hrs by […] based confocal microscopic analysis
HUVEC [19] = test: Induction of F-actin depolymerization in HUVEC assessed as plasma membrane blebbing at 250 nM incubated for 6 hrs by phalloidin staining based confocal microscopic analysis; assay type: cell membranes; settings: Homo sapiens
Tubulin (Homo sapiens) [20] = molecular target: T1, Tubulin (Homo sapiens); test: Induction of microtubule depolymerization in HUVEC assessed as assessed as plasma membrane blebbing at 250 nM incubated for 6 hrs by […] based confocal microscopic analysis; assay type: cell membranes
[21] = Stability in simulated gastric fluid at pH 1.2 assessed as parent compound remaining after 2 hrs; assay type: ADME; settings: read-out: Stability
[22] = Stability in simulated intestinal fluid at pH 6.8 assessed as parent compound remaining after 2 hrs; assay type: ADME; settings: read-out: Stability
[23] = Stability in rat plasma assessed as compound remaining measured up to 2 hrs; assay type: ADME, cell-free; settings: read-out: Stability
[24] = Metabolic stability in rat liver microsomes assessed as half life; assay type: ADME, Microsome
[25] = Metabolic stability in rat liver microsomes assessed as dissociation rate constant; assay type: ADME, Microsome
[26] = Intrinsic clearance in rat liver microsomes; assay type: ADME, Microsome
[27] = Stability in culture media assessed as compound remaining at 250 to 500 nM measured up to 24 hrs; assay type: physicochemical; settings: dose 250-500 nM, read-out: Stability
[28] = Cmax in Sprague-Dawley rat at 25 mg/kg, IM measured up to 48 hrs; assay type: ADME, organism-based; parameters: route intramuscular, dose 25 mg/kg, time <=48; settings: in vivo
[29] = Tmax in Sprague-Dawley rat at 25 mg/kg, IM measured up to 48 hrs; assay type: ADME, organism-based; settings: in vivo
[30] = Apparent volume of distribution in Sprague-Dawley rat at 25 mg/kg, IM measured up to 48 hrs; assay type: ADME, organism-based; settings: in vivo
[31] = Clearance in Sprague-Dawley rat at 25 mg/kg, IM measured up to 48 hrs; assay type: ADME, organism-based; settings: in vivo
[32] = Half life in Sprague-Dawley rat at 25 mg/kg, IM measured up to 48 hrs; assay type: ADME, organism-based; settings: in vivo
[33] = Elimination rate constant in Sprague-Dawley rat at 25 mg/kg, IM measured up to 48 hrs; assay type: ADME, organism-based; settings: in vivo
HUVEC [34] = test: Vascular disruptive effect in HUVEC cells assessed as reduction in tube formation at 250 nM measured after 3 to 24 hrs by calcein-AM staining based fluorescence microscopic analysis; assay type: functional, cell-based; settings: Homo sapiens, time 3-24 hrs
MDA-MB-468 = test: Antitumor activity against human MDA-MB-468 cells xenografted in CD-1 mouse assessed as reduction in tumor size at 30 mg/kg, iv administered once daily for 21 days; assay type: functional, organism-based; settings: time 21.0 day
[35] = molecular target: Vascular endothelial growth factor receptor 2 (Homo sapiens) (UniProt P35968); test: Inhibition of VEGFR2 phosphorylation in VEGF-induced HUVEC cells pretreated at 0.5 to 20 uM by Western blot analysis; assay type: cell-based; settings: dose 0.5-20 µM
HUVEC [36] = test: Anti-angiogenesis activity against HUVEC cells assessed as reduction in tubule formation at 50 nM incubated for 6 hrs by inverted fluorescence microscopic analysis relative to control; assay type: functional, Homo sapiens; parameters: scale not given: the % may be the effect or the level left
Mus musculus [37] = species: Mus musculus; test: Antiangiogenic activity in BALB/c mouse assessed as reduction in neovascularization by measuring reduction in hemoglobin concentration at 2 uM by matrigel plug assay; assay type: functional, organism-based
Mus musculus [38] = species: Mus musculus; test: Antiangiogenic activity in BALB/c mouse assessed as assessed as reduction in CD31-positive microvessel density in ear tissue at 2 uM measured after 6 days by fluorescence microscopic analysis; assay type: functional, organism-based; settings: time 6.0 day

Chain of Vascular endothelial growth factor receptor 2 (Homo sapiens) (P35968 whole entry): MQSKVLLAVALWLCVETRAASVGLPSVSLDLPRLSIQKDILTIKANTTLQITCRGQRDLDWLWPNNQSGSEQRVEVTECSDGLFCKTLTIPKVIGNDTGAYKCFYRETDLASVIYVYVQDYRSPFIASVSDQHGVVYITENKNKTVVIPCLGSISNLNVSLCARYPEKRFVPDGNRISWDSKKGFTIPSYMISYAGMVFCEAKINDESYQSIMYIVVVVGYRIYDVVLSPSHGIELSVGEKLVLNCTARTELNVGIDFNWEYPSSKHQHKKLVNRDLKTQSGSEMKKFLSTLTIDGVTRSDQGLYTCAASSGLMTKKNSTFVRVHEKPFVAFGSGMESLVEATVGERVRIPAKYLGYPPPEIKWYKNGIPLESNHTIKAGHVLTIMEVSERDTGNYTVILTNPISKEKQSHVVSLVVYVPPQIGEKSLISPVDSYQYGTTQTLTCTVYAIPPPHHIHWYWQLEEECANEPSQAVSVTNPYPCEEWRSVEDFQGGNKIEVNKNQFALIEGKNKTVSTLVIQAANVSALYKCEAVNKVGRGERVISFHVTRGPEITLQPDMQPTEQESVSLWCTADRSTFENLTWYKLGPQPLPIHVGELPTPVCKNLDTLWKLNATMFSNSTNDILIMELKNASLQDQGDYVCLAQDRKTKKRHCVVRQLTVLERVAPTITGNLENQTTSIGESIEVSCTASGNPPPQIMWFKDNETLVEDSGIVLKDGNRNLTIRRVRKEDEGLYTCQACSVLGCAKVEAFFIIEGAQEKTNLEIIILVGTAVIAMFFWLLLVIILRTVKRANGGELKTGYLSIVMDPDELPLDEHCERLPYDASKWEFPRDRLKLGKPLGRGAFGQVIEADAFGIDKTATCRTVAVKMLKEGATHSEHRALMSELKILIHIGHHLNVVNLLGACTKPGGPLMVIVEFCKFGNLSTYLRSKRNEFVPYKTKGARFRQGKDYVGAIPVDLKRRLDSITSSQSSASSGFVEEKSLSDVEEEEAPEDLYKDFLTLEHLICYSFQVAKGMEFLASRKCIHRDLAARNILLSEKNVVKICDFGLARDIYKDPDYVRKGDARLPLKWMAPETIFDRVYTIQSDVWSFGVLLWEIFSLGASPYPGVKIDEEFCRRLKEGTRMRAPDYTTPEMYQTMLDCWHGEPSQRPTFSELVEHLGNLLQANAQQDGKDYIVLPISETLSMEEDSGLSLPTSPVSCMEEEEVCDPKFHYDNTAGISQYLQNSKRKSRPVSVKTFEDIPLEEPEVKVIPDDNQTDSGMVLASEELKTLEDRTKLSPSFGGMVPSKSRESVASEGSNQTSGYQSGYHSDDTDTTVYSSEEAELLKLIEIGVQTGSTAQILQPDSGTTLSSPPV

SMILES: N#Cc1c(Nc2ccccc2)sc2cc3c(cc12)OCO3
Activity (HUVEC [1]): 75%

SMILES: COc1ccc(Nc2sc3ccccc3c2C#N)cc1
Activity (HUVEC [1]): 57%

SMILES: COc1cc2sc(Nc3cccc(O)c3)c(C#N)c2cc1OC
Activity (HUVEC [1]): 11%
Activity (HUVEC [2]): 67%

SMILES: N#Cc1c(Nc2ccc(C(F)(F)F)cc2)sc2ccccc12
Activity (HUVEC [1]): 24%
Activity (HUVEC [2]): 65%

SMILES: N#Cc1c(Nc2ccccc2)sc2ccccc12
Activity (HUVEC [1]): 81%

SMILES: N#Cc1c(Nc2cccc(O)c2)sc2ccccc12
Activity (HUVEC [1]): 0%
Activity (HUVEC [2]): 60%

SMILES: N#Cc1c(Nc2ccccc2O)sc2ccccc12
Activity (HUVEC [1]): 19%
Activity (HUVEC [2]): 68%

Activity (Tubulin (Homo sapiens) [16]): Active
Activity (Tubulin (Homo sapiens) [18]): Active
Activity (HUVEC [19]): Active
Activity (Tubulin (Homo sapiens) [20]): Active
remaining at 2 h [21]: 90.4%
remaining at 2 h [22]: 89%
remaining at 2 h [23]: 89.1%
half-life [24]: 1.87 h
Kdiss [25]: 0.000103 s⁻¹
CLH [26]: 0.74 L/h
remaining at 24 h, up to 0.5 µM [27]: 78.3%
Cmax [28]: 442 ng/mL
Tmax [29]: 0.5 h
Vz [30]: 107.16 L/kg
CL/F [31]: 205 mL/min/kg
half-life [32]: 6 h
k el at 48 h [33]: 3.47e-05 s⁻¹
inhibition [35]: Active
SMILES: N#Cc1c(Nc2ccc(O)cc2)sc2ccccc12
Activity (HUVEC [1]): 25%
Activity (HUVEC [2]): 2%
inhibition (HUVEC [3]): Dose-Dependent Effect
inhibition (HUVEC [4]): inactive
Activity (HUVEC [5]): Dose-Dependent Effect
inhibition (INH) (HUVEC [6]): 80%
inhibition (HUVEC [7]): inactive
Activity (HUVEC [8]): Non-Toxic
Activity (HUVEC [9]): 1.58%
Activity (Mus musculus [10]): Active
Activity (Mus musculus [11]): Active
Activity (HUVEC [12]): Active
Activity (HUVEC [13]): Active
Activity (HUVEC [14]): inactive
Activity (HUVEC [15]): Active
Activity (HUVEC [17]): Active
Activity (HUVEC [34]): Active
Activity (MDA-MB-468): Active

SMILES: CCN(CC)CCNC(=O)c1c(C)[nH]c(/C=C2\C(=O)Nc3ccc(F)cc32)c1C [SUNITINIB]
Activity (HUVEC [36]): 43%
Activity (Mus musculus [37]): Active
Activity (Mus musculus [38]): Active

SMILES: N#Cc1c(Nc2ccccc2)sc2cc3ccccc3cc12
Activity (HUVEC [1]): 50%

SMILES: COc1c2c(cc3c(C#N)c(Nc4ccccc4)sc13)OCO2
Activity (HUVEC [1]): 81%

SMILES: N#Cc1c(Nc2ccc(Cl)cc2)sc2ccccc12
Activity (HUVEC [1]): 45%
Activity (HUVEC [2]): 45%

SMILES: CC(=O)N(c1ccc(O)cc1)c1sc2ccccc2c1C#N
Activity (HUVEC [1]): 36%
Activity (HUVEC [2]): 59%

SMILES: N#Cc1c(Nc2ccc(F)cc2)sc2ccccc12
Activity (HUVEC [1]): 25%
Activity (HUVEC [2]): 58%

SMILES: COc1cc2sc(Nc3ccc(O)cc3)c(C#N)c2cc1OC
Activity (HUVEC [1]): 0%
Activity (HUVEC [2]): 73%

SMILES: COc1ccc(Nc2sc3c(OC)cc(OC)cc3c2C#N)cc1
Activity (HUVEC [1]): 63%

SMILES: COc1cccc(Nc2sc3ccccc3c2C#N)c1
Activity (HUVEC [1]): 81%

SMILES: N#Cc1c(Nc2ccc([N+](=O)[O-])cc2)sc2ccccc12
Activity (HUVEC [1]): 8%
Activity (HUVEC [2]): 37%

SMILES: N#Cc1c(Nc2ccc(N)cc2)sc2ccccc12
Activity (HUVEC [1]): 1%
Activity (HUVEC [2]): 51%

SMILES: COc1cc2sc(Nc3ccccc3)c(C#N)c2cc1OC
Activity (HUVEC [1]): 77%
